This passage reports IL-1β % inhibition results from patent publication US7297700B2, “Bicycloheteroaryl compounds as P2X7 modulators and uses thereof” (Renovis, Inc., priority 2005, dated 2007).

The first test concerns IL-1β release from THP-1 cells. The test can be described thus: IL-1β Release Assay (Alternate Method), THP-1 cells. Type of test: cell-based, human. The conditions noted are these: at 0.3 μM; THP-1 cells. Summed up:
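IL-1β release, measured by ELISA, follows 45 min BzATP (250 uM final) stimulation of THP-1 cells given 30 min compound pretreatment. Cells were first primed 16 h with LPS and IFN-γ (100 ng/mL each), then 2 h with fresh LPS; inhibition expressed in percent after background correction.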
Turning to `COc1ccc(CC(=O)N2CCc3c(ncnc3NC(=O)CC34CC5CC(CC(C5)C3)C4)C2)cc1OC` [Compound 254], the IL-1β % inhibition entry was “+ (compound exhibited 0-25% inhibition at 0.3 μM)”.

With `O=C(CC12CC3CC(CC(C3)C1)C2)Nc1ncnc2c1CCN(Cc1cccnc1)C2` [Compound 16], the IL-1β % inhibition entry is listed as “+ (compound exhibited 0-25% inhibition at 0.3 μM)”.

As for `O=C(CC12CC3CC(CC(C3)C1)C2)Nc1ncnc2c1CCN(C(=O)c1c(Cl)cccc1Cl)C2` [Compound 218], the IL-1β % inhibition result was “++++ (compound exhibited 75% or greater inhibition at 0.3 μM)”.

Consider `O=C(NCC12CC3CC(CC(C3)C1)C2)c1ncnc2c1CCN(Cc1ccccc1Cl)C2` [Compound 337], for which the IL-1β % inhibition entry is on record as “++ (compound exhibited 25-50% inhibition at 0.3 μM)”.

`CC(=O)N1CCc2c(ncnc2NC(=O)CC23CC4CC(CC(C4)C2)C3)C1` [Compound 219]: the IL-1β % inhibition result is “+ (compound exhibited 0-25% inhibition at 0.3 μM)”.

For `O=C(CC12CC3CC(CC(C3)C1)C2)Nc1ncnc2c1CCN(C(=O)C(c1ccccc1)c1ccccc1)C2` [Compound 236], the IL-1β % inhibition result is “+++ (compound exhibited 50-75% inhibition at 0.3 μM)”.

With `CC12CC3CC(C)(C1)CC(CC(=O)Nc1ncnc4c1CCN(S(=O)(=O)Cc1ccc(Cl)c(Cl)c1)C4)(C3)C2` [Compound 378], the IL-1β % inhibition result is listed as “+++ (compound exhibited 50-75% inhibition at 0.3 μM)”.

In the case of `Cc1nn(C)c(Cl)c1S(=O)(=O)N1CCc2c(ncnc2NC(=O)CC23CC4CC(CC(C4)C2)C3)C1` [Compound 158], the IL-1β % inhibition entry is listed as “+ (compound exhibited 0-25% inhibition at 0.3 μM)”.

For `COc1ccccc1CCC(=O)Nc1ncnc2c1CCNC2` [Compound 25], the IL-1β % inhibition entry is “+ (compound exhibited 0-25% inhibition at 0.3 μM)”.

`COc1ccc(C(=O)N2CCc3c(ncnc3NC(=O)CC34CC5CC(CC(C5)C3)C4)C2)cc1OC` [Compound 312]: the IL-1β % inhibition entry is on record as “+ (compound exhibited 0-25% inhibition at 0.3 μM)”.

`Cc1nc(S(=O)(=O)N2CCc3c(ncnc3NC(=O)CC34CC5CC(CC(C5)C3)C4)C2)cn1C` [Compound 164]: the IL-1β % inhibition entry is given as “+ (compound exhibited 0-25% inhibition at 0.3 μM)”.

Take `O=C(CC12CC3CC(CC(C3)C1)C2)Nc1ncnc2c1CCN(C(=O)c1cccc(C(F)(F)F)c1)C2` [Compound 233]: the IL-1β % inhibition result is listed as “++++ (compound exhibited 75% or greater inhibition at 0.3 μM)”.

Consider `O=C(CC12CC3CC(CC(C3)C1)C2)Nc1ncnc2c1CCN(Cc1cccc(OC(F)(F)F)c1)C2` [Compound 114], for which the IL-1β % inhibition entry was “+ (compound exhibited 0-25% inhibition at 0.3 μM)”.

With `CC(C)(C(=O)Nc1ncnc2c1CCN(Cc1ccc3c(c1)OCCO3)C2)C12CC3CC(CC(C3)C1)C2` [Compound 350], the IL-1β % inhibition entry is listed as “+ (compound exhibited 0-25% inhibition at 0.3 μM)”.

Consider `CC(CC(=O)N1CCc2c(ncnc2NC(=O)CC23CC4CC(CC(C4)C2)C3)C1)CC(C)(C)C` (stereo not shown) [Compound 235], for which the IL-1β % inhibition entry is recorded as “++++ (compound exhibited 75% or greater inhibition at 0.3 μM)”.

For `Cc1cc(C(=O)N2CCc3c(ncnc3NC(=O)CC34CC5CC(CC(C5)C3)C4)C2)no1` [Compound 283], the IL-1β % inhibition entry is on record as “+++ (compound exhibited 50-75% inhibition at 0.3 μM)”.

For the molecule `CC(C)(C)CC(=O)N1CCc2c(ncnc2NC(=O)CC23CC4CC(C)(CC(C)(C4)C2)C3)C1` [Compound 388], the IL-1β % inhibition entry is listed as “+ (compound exhibited 0-25% inhibition at 0.3 μM)”.

In the case of `COc1ccc(OC)c(S(=O)(=O)N2CCc3c(ncnc3NC(=O)CC34CC5CC(CC(C5)C3)C4)C2)c1` [Compound 216], the IL-1β % inhibition result was “+++ (compound exhibited 50-75% inhibition at 0.3 μM)”.

`CC12CC3CC(C)(C1)CC(CC(=O)Nc1ncnc4c1CCN(C(=O)c1c(F)cccc1F)C4)(C3)C2` [Compound 387]: the IL-1β % inhibition result was “+ (compound exhibited 0-25% inhibition at 0.3 μM)”.

`CS(=O)(=O)c1ccc(CN2CCc3c(ncnc3C(=O)NCC3CCCCC3)C2)cc1` [Compound 56]: the IL-1β % inhibition result is recorded as “+ (compound exhibited 0-25% inhibition at 0.3 μM)”.

As for `O=C(NCC12CC3CC(CC(C3)C1)C2)c1ncnc2c1CCN(Cc1ccccc1F)C2` [Compound 139], the IL-1β % inhibition result is on record as “++ (compound exhibited 25-50% inhibition at 0.3 μM)”.

Turning to `O=C(CC12CC3CC(CC(C3)C1)C2)Nc1ncnc2c1CCN(Cc1ccc(Oc3ccccc3)cc1)C2` [Compound 75], the IL-1β % inhibition result was “+ (compound exhibited 0-25% inhibition at 0.3 μM)”.

For the molecule `O=C(CC12CC3CC(CC(C3)C1)C2)Nc1ncnc2c1CCN(C(=O)Cc1ccc(F)cc1)C2` [Compound 241], the IL-1β % inhibition result is “+++ (compound exhibited 50-75% inhibition at 0.3 μM)”.

For the molecule `O=C(O)COc1ccc(CN2CCc3c(ncnc3NC(=O)CC34CC5CC(CC(C5)C3)C4)C2)cc1` [Compound 140], the IL-1β % inhibition result is recorded as “+ (compound exhibited 0-25% inhibition at 0.3 μM)”.

For the molecule `CC(C)(C(=O)Nc1ncnc2c1CCN(Cc1ccc(F)cc1F)C2)C12CC3CC(CC(C3)C1)C2` [Compound 347], the IL-1β % inhibition result was “+ (compound exhibited 0-25% inhibition at 0.3 μM)”.

As to `Cc1ccc(C(=O)N2CCc3c(ncnc3NC(=O)CC34CC5CC(CC(C5)C3)C4)C2)cc1` [Compound 291], the IL-1β % inhibition entry is “++++ (compound exhibited 75% or greater inhibition at 0.3 μM)”.

The same test, now with this note: at 0.3 μM; THP-1 cells, BzATP-stimulated.
As for `O=C(Nc1ncnc2c1CCN(Cc1ccc(Cl)c(Cl)c1)C2)C12CC3CC(CC(C3)C1)C2` [Compound 590], the IL-1β % inhibition result is listed as “+ (compound exhibited 0-25% inhibition at 0.3 μM)”.

On to `O=C(Nc1ncnc2c1CCN(CC1CC1)C2)C12CC3CC(CC(C3)C1)C2` [Compound 557], for which the IL-1β % inhibition entry is “+ (compound exhibited 0-25% inhibition at 0.3 μM)”.

On to `CCOc1cccc(CN2CCc3c(ncnc3NC(=O)C34CC5CC(CC(C5)C3)C4)C2)c1` [Compound 625], for which the IL-1β % inhibition entry is on record as “+ (compound exhibited 0-25% inhibition at 0.3 μM)”.

For `O=C(Nc1ncnc2c1CCN(S(=O)(=O)c1ccc(Cl)cc1)C2)C12CC3CC(CC(C3)C1)C2` [Compound 488], the IL-1β % inhibition result is “+ (compound exhibited 0-25% inhibition at 0.3 μM)”.

Take `COc1cc(CN2CCc3c(ncnc3NC(=O)C34CC5CC(CC(C5)C3)C4)C2)cc(OC)c1` [Compound 633]: the IL-1β % inhibition result is on record as “+ (compound exhibited 0-25% inhibition at 0.3 μM)”.

Consider `O=C(Nc1ncnc2c1CCN(Cc1cccc(Oc3cccc(C(F)(F)F)c3)c1)C2)C12CC3CC(CC(C3)C1)C2` [Compound 626], for which the IL-1β % inhibition result was “++ (compound exhibited 25-50% inhibition at 0.3 μM)”.

For `O=C(Nc1ncnc2c1CCN(CCCc1ccccc1)C2)C12CC3CC(CC(C3)C1)C2` [Compound 559], the IL-1β % inhibition entry was “++ (compound exhibited 25-50% inhibition at 0.3 μM)”.

For the molecule `COc1cc(CN2CCc3c(ncnc3NC(=O)C34CC5CC(CC(C5)C3)C4)C2)ccc1OCc1ccccc1` [Compound 588], the IL-1β % inhibition entry was “++ (compound exhibited 25-50% inhibition at 0.3 μM)”.

Take `O=C(Nc1ncnc2c1CCN(S(=O)(=O)c1cccc(OC(F)(F)F)c1)C2)C12CC3CC(CC(C3)C1)C2` [Compound 497]: the IL-1β % inhibition entry is “+ (compound exhibited 0-25% inhibition at 0.3 μM)”.

Consider `O=C(Nc1ncnc2c1CCN(Cc1ccncc1)C2)C12CC3CC(CC(C3)C1)C2` [Compound 610], for which the IL-1β % inhibition result is “+ (compound exhibited 0-25% inhibition at 0.3 μM)”.

For the molecule `COc1ccc(CN2CCc3c(ncnc3NC(=O)C34CC5CC(CC(C5)C3)C4)C2)c(OC)c1` [Compound 608], the IL-1β % inhibition entry is recorded as “+ (compound exhibited 0-25% inhibition at 0.3 μM)”.
